Counter-ions that a name gives are not always drawn.
test system: Lettuce seeds; assay: Filter paper bioassay on germination and early development of Lettuce seeds; type: in vivo; conditions: 144 h, lowest concentration causing malformation of radicle or shoots; visually assessed six days after beginning; 0 to 1 mmol/l; read-out: MEC, score (Minimal Effective Concentration, activity score) (converted)
Description: Materials: Seeds of Lettuce R. (Super-Jericho, non-sterilized) were obtained from Ben Shahar Moshe Ltd., 99% purity. The test compounds listed in Table 3 below were synthesized de novo or purchased from different vendors. Bioassays: Filter Paper Bioassays with Lettuce seeds were performed following Bertin et al. 2009 with modifications as described below. Seeds were placed on Whatman no. 1 filter paper (Whatman, Middlesex, U.K.) in Petri dishes (10 seeds per plate) with 2.0 ml of an aqueous solution of test material in a concentration ranging from 0 (control) to 1 mmol/l. The Petri dishes were arranged in a tray tilted at a 45-degree angle and were kept in the dark for 48 hours. Then trays with plates were transferred to the growth chamber with a 6/18 dark/light cycle for four days. Each experiment was performed in at least two repeats.
The development of plants' radicles and shoots was visually assessed six days after the beginning of the test to determine the Minimal Effective Concentration (MEC) of a test material. In the context of the invention, MEC is defined as the lowest concentration level of a test material that caused deviation (malformation of radicle or shoots).

Structure (SMILES)	minimal effective concentration [µM]
O=C(O)c1csc(Cl)n1 [compound 7194, 2-chloro-1,3-thiazole-4-carboxylic acid]	100
CCOCCOCCOC(=O)COc1ccc(Br)c(Br)n1 [compound 7172, 2-(2-ethoxyethoxy)ethyl [(5,6-dibromopyridin-2-yl)oxy]acetate]	1
CCOC(=O)CSc1ccc(F)c(Br)n1 [compound 7114, ethyl 2-[(6-bromo-5-fluoropyridin-2-yl)sulfanyl]acetate]	< 1
O=C(O)CS(=O)(=O)c1nc(Cl)sc1Cl [compound 7138, (2,5-dichloro-1,3-thiazol-4-sulfonyl)acetic acid]	10
O=C(O)CSc1nc(Cl)cs1 [compound 7109, 2-[(4-chloro-1,3-thiazol-2-yl)sulfanyl]acetic acid]	10
CCOC(=O)c1c[nH]cc1CC#N [compound 7131, ethyl 4-(cyanomethyl)-1H-pyrrole-3-carboxylate]	10
CCOC(=O)Sc1csc(Cl)n1 [compound 7189, S-(2-chloro-1,3-thiazol-4-yl) O-ethyl carbonothioate]	10
CCOC(=O)CSc1cccc(Br)n1 [compound 6693, ethyl [(6-bromopyridin-2-yl)sulfanyl]acetate]	1
O=C(O)CS(=O)(=O)c1csc(Cl)n1 [compound 5851, (2-chloro-1,3-thiazol-4-sulfonyl)acetic acid]	1
O=C(O)CNc1c(Cl)csc1Cl [compound 7147, 2-[(2,4-dichlorothiophen-3-yl)amino]acetic acid hydrochloride]	10
CCOC(=O)CSc1csc(Cl)n1 [compound 5850, ethyl 2-[(2-chloro-1,3-thiazol-4-yl)sulfanyl]acetate]	10
CCOC(=O)CSc1nc(Cl)cs1 [compound 7112, ethyl [(4-chloro-1,3-thiazol-2-yl)sulfanyl]acetate]	10
O=C(O)CNc1cccc(Br)n1 [compound 6702, 2-[(6-bromopyridin-2-yl)amino]acetic acid]	1
O=C(O)CCCCSc1ccc(Br)c(Br)n1 [compound 7187, 5-[(5,6-dibromopyridin-2-yl)sulfanyl]pentanoic acid]	1
NCCCCNc1ccc(Br)c(Br)n1 [compound 6709, N1-(5,6-dibromopyridin-2-yl)butane-1,4-diamine]	10
CC(Sc1ccc(Br)c(Br)n1)C(=O)O (stereo not shown) [compound 7182, 2-[(5,6-dibromopyridin-2-yl)sulfanyl]propanoic acid]	10
COC(=O)Cc1ncsc1C#N [compound 7168, methyl 2-(5-cyano-1,3-thiazol-4-yl)acetate]	10
O=C(Cc1ccccc1)NCCCNc1cccc(Br)n1 [compound 7121, N-{3-[(6-bromopyridin-2-yl)amino]propyl}-2-phenylacetamide]	10
CCOCCOCCOC(=O)CSc1ccc(Br)c(Br)n1 [compound 7139, 2-(2-ethoxyethoxy)ethyl [(5,6-dibromopyridin-2-yl)sulfanyl]acetate]	1
O=C(O)CNc1nc(Cl)cs1 [compound 7125, 2-[(4-chloro-1,3-thiazol-2-yl)amino]acetic acid]	10
O=C(O)CCCCNc1ccc(F)c(Br)n1 [compound 7165, 5-[(6-bromo-5-fluoropyridin-2-yl)amino]pentanoic acid]	10

Structure (SMILES)	minimal effective concentration [µM]
CCOC(=O)CSc1nc(Br)ccc1F [compound 7160, ethyl 2-[(6-bromo-3-fluoropyridin-2-yl)sulfanyl]acetate]	< 1
O=C(O)CCCCNc1nc(Br)c(Br)cc1F [compound 7170, 5-[(5,6-dibromo-3-fluoropyridin-2-yl)amino]pentanoic acid]	1
CCCCOC(=O)CSc1ccc(Br)c(Br)n1 [compound 6700, butyl [(5,6-dibromopyridin-2-yl)sulfanyl]acetate]	1
O=C(O)CSc1nc(Br)ccc1Br [compound 7124, [(3,6-dibromopyridin-2-yl)sulfanyl]acetic acid]	1
CCOC(=O)CSc1nc(Cl)sc1Cl [compound 7119, ethyl 2-[(2,5-dichloro-1,3-thiazol-4-yl)sulfanyl]acetate]	10
CCOC(=O)Cc1ccc(F)c(Br)n1 [compound 7117, ethyl (6-bromo-5-fluoropyridin-2-yl)acetate]	10
O=C(O)CNc1ccc(Br)c(Br)n1 [compound 7122, 2-[(5,6-dibromopyridin-2-yl)amino]acetic acid]	1
CCCCOC(=O)C[S+]([O-])c1ccc(Br)c(Br)n1 (stereo not shown) [compound 6703, butyl (5,6-dibromopyridine-2-sulfinyl)acetate]	10
O=C(O)CCSc1ccc(Br)c(Br)n1 [compound 7178, 3-[(5,6-dibromopyridin-2-yl)sulfanyl]propanoic acid]	1
CCOC(=O)C(Cl)(Cl)c1csc(Cl)n1 [compound 7188, ethyl dichloro(2-chloro-1,3-thiazol-4-yl)acetate]	100
O=C(O)CNc1ccc(F)c(Br)n1 [compound 7148, 2-[(6-bromo-5-fluoropyridin-2-yl)amino]acetic acid]	10
O=C(O)CNc1nc(Br)c(Br)cc1F [compound 7169, 2-[(5,6-dibromo-3-fluoropyridin-2-yl)amino]acetic acid]	1
O=C(O)CC#Cc1nc(Cl)sc1Cl [compound 7145, 4-(2,5-dichloro-1,3-thiazol-4-yl)but-3-ynoic acid]	1
COC(=O)Cc1nc(Cl)sc1C#N [compound 7167, methyl 2-(2-chloro-5-cyano-1,3-thiazol-4-yl)acetate]	10
O=C(O)CSc1ccc(F)c(Br)n1 [compound 7151, [(6-bromo-5-fluoropyridin-2-yl)sulfanyl]acetic acid]	< 1
O=C(O)CCCSc1ccc(Br)c(Br)n1 [compound 7174, 4-[(5,6-dibromopyridin-2-yl)sulfanyl]butanoic acid]	< 1
CCCCCCCCOC(=O)CSc1cccc(Br)n1 [compound 7106, octyl [(6-bromopyridin-2-yl)sulfanyl]acetate]	10
CCCCOC(=O)CSc1nc(Cl)ccc1Br [compound 6694, butyl [(3-bromo-6-chloropyridin-2-yl)sulfanyl]acetate]	1
O=C(O)CSc1cccc(Br)n1 [compound 6688, [(6-bromopyridin-2-yl)sulfanyl]acetic acid]	1
O=C(O)C[S+]([O-])c1nc(Cl)sc1Cl (stereo not shown) [compound 7137, (2,5-dichloro-1,3-thiazole-4-sulfinyl)acetic acid]	10

same assay, conditions: lowest concentration causing malformation of radicle or shoots; visually assessed six days after beginning; 0 to 1 mmol/l

Structure (SMILES)	activity score
O=C(Cc1ccccc1)NCCCCNc1cccc(Br)n1 [compound 7123, N-{4-[(6-bromopyridin-2-y1)amino]butyl}-2-phenylacetamide]	4 (0.01 mM)

test system: Abutilon; assay: Post-emergence herbicidal effect on potted weeds; type: in vivo; conditions: 2-3 true leaves, up to 5 mg/pot, scale 0 (dead plants) to 5 (healthy, as control)
Description: (§1) Weed seeds were sawn in 0.3-liter pots containing medium-heavy clay-loam soil from organic fields (55% clay, 23% silt, 20% sand, 2% organic matter, pH 7.1). The experiment was conducted in a completely randomized design. Each treatment was replicated three times (3 pots). Each compound was typically tested on a weed panel which included Amaranth, Abutilon, Malva, Silybum, and Sinapis. The herbicides were applied at doses from 0 (control) to 5 mg/pot. The herbicides were applied on grown plants at stage 2-3 true leaves (post-emergence treatment). The plants were grown in the mesh house during the entire experiment. Plant development at 6, 12, 19, 26, and 32 days after application (DAA) was evaluated on a scale of 0 to 5, in which 0 represents dead plants, and 5 represents healthy plants similar or not different from Control. In the context of the invention, the herbicidal effect was expressed as a score calculated as an average of assessments of plants' vigor, height, and leaf color.

Structure (SMILES)	Average Herbicidal Effect, score
CCOC(=O)CSc1ccc(F)c(Br)n1 [compound 7114, ethyl 2-[(6-bromo-5-fluoropyridin-2-yl)sulfanyl]acetate]	5

test system: Amaranth; assay: Post-emergence herbicidal effect on potted weeds; type: in vivo; conditions: 2-3 true leaves, up to 5 mg/pot, scale 0 (dead plants) to 5 (healthy, as control)
Description: as §1

Structure (SMILES)	Average Herbicidal Effect, score
CCOC(=O)CSc1ccc(F)c(Br)n1 [compound 7114, ethyl 2-[(6-bromo-5-fluoropyridin-2-yl)sulfanyl]acetate]	3

test system: Lactuca; assay: Post-emergence herbicidal effect on potted weeds; type: in vivo; conditions: 2-3 true leaves, up to 5 mg/pot, scale 0 (dead plants) to 5 (healthy, as control)
Description: as §1

Structure (SMILES)	Average Herbicidal Effect, score
CCOC(=O)CSc1ccc(F)c(Br)n1 [compound 7114, ethyl 2-[(6-bromo-5-fluoropyridin-2-yl)sulfanyl]acetate]	5

test system: Malva; assay: Post-emergence herbicidal effect on potted weeds; type: in vivo; conditions: 2-3 true leaves, up to 5 mg/pot, scale 0 (dead plants) to 5 (healthy, as control)
Description: as §1

Structure (SMILES)	Average Herbicidal Effect, score
CCOC(=O)CSc1ccc(F)c(Br)n1 [compound 7114, ethyl 2-[(6-bromo-5-fluoropyridin-2-yl)sulfanyl]acetate]	4

test system: Silybum; assay: Post-emergence herbicidal effect on potted weeds; type: in vivo; conditions: 2-3 true leaves, up to 5 mg/pot, scale 0 (dead plants) to 5 (healthy, as control)
Description: as §1

Structure (SMILES)	Average Herbicidal Effect, score
CCOC(=O)CSc1ccc(F)c(Br)n1 [compound 7114, ethyl 2-[(6-bromo-5-fluoropyridin-2-yl)sulfanyl]acetate]	5

test system: Sinapis; assay: Post-emergence herbicidal effect on potted weeds; type: in vivo; conditions: 2-3 true leaves, up to 5 mg/pot, scale 0 (dead plants) to 5 (healthy, as control)
Description: as §1

Structure (SMILES)	Average Herbicidal Effect, score
CCOC(=O)CSc1ccc(F)c(Br)n1 [compound 7114, ethyl 2-[(6-bromo-5-fluoropyridin-2-yl)sulfanyl]acetate]	4

test system: Trifolium; assay: Post-emergence herbicidal effect on potted weeds; type: in vivo; conditions: 2-3 true leaves, up to 5 mg/pot, scale 0 (dead plants) to 5 (healthy, as control)
Description: as §1

Structure (SMILES)	Average Herbicidal Effect, score
CCOC(=O)CSc1ccc(F)c(Br)n1 [compound 7114, ethyl 2-[(6-bromo-5-fluoropyridin-2-yl)sulfanyl]acetate]	4
